Source: patent US9499862B2, “Phospholinked dye analogs with an amino acid linker” (Pacific Biosciences of California, Inc., priority 2010, dated 2016)

Test system: DNA polymerase
Details: for 2SS characteristics: two slow step character, equals K1/K2; for K1 (S-1) / K2 (S-1): two slow step results, single molecule DNA sequencing, cyanine dye conjugate
Source text: In some cases, the system will have four kinetically observable (slow) reaction steps, two slow steps in a bright phase and two slow steps in a dark phase.

Structure (SMILES) | 2SS characteristics | K1 (S-1) | K2 (S-1)
CC1(C)C(/C=C/C=C/C=C2/N(CCCCCC(=O)NC(CCC(=O)O)C(=O)NC(CCC(=O)O)C(=O)NCCCCCCOP(=O)(O)OP(=O)(O)OP(=O)(O)OC[C@H]3O[C@@H](n4ccc(N)nc4=O)CC3O)c3ccc4c(S(=O)(=O)O)cc(S(=O)(=O)O)cc4c3C2(C)C)=[N+](CCCS(=O)(=O)[O-])c2ccc3c(S(=O)(=O)O)cc(S(=O)(=O)O)cc3c21 (stereo partly drawn) [2Glu-tri-phosphate] | 7.3 | 7.898 S-1 | 1.082 S-1
CC1(C)C(/C=C/C=C/C=C2/N(CCCCCC(=O)NC(CCCCN)C(=O)NC(CCCCN)C(=O)NCCCCCCOP(=O)(O)OP(=O)(O)OP(=O)(O)OC[C@H]3O[C@@H](n4ccc(N)nc4=O)CC3O)c3ccc4c(S(=O)(=O)O)cc(S(=O)(=O)O)cc4c3C2(C)C)=[N+](CCCS(=O)(=O)[O-])c2ccc3c(S(=O)(=O)O)cc(S(=O)(=O)O)cc3c21 (stereo partly drawn) [2Lys-tri-phosphate] | 6.5 | 2.645 S-1 | 0.406 S-1
